# Measured values published in patent US20240174695A1, “Spirocycle Containing Bicyclic Heteroaryl Compounds” (Protego Biopharma, Inc., priority 2022, published 2024).
# Tested on: Recombinant amyloidogenic full length light chain protein WIL-FL T46L
# Test: Differential Scanning Fluorimetry Assay (thermal shift assay); also: test concentration or dose not given here
# Format: binding
# Settings: Thermal Shift Protein Stability Kit (Biotium), 96-well plates; protein and compounds incubated at RT for 30 min before adding the dye
# Procedure: Differential Scanning Fluorimetry Assay
# The stabilization effects the compounds have on the immunoglobulin light chain protein were quantitively measured using a thermal shift assay. Recombinant amyloidogenic full length light chain protein WIL-FL T46L was produced in E. coli, purified, and used in the assay. The Thermal Shift Protein Stability Kit from Biotium was used and the assay was done in 96-well plates following the manufacturer's instructions. The protein and compounds were incubated at RT for 30 min before adding the dye and subjected to the thermal shift assay. The thermal stability (Tm) of each sample was then determined using standard curve fitting methods and compared to vehicle. Data are expressed as temperature shift: [Tm]compound−[Tm]vehicle.
# Results • 0-0.5° C.=* • >0.5-1° C.=** • >1-1.5° C.=*** • >1.5-2.5° C.=**** • >2.5° C.=*****
row,Structure (SMILES),DSF temperature shift: [Tm]compound−[Tm]vehicle
1,"Cc1cc(OCC2(c3ccccc3)CC2)cn2nc(C(O)CN3CC4(CCN(C(=O)c5nncn5C)CC4)NC3=O)nc12 (stereo not shown) [Compound 30, 3-(2-hydroxy-2-(8-methyl-6-((1-phenylcyclopropyl)methoxy)-[1,2,4]triazolo[1,5-a]pyridin-2-yl)ethyl)-8-(4-methyl-4H-1,2,4-triazole-3-carbonyl)-1,3,8-triazaspiro[4.5]decan-2-one]",**** (>1.5-2.5° C.=****)
2,Cc1cc(OC[C@H](C)c2ccccc2)cn2nc(C(O)CN3CC4(CN(c5cccc(O)n5)C4)NC3=O)nc12 (stereo partly shown) [Compound 83],***** (>2.5° C.=*****)
3,Cc1cc(N2CCC3(CC2)CN(CC(O)c2nc4c(C)cc(OCC5(c6ccccc6)CC5)cn4n2)C(=O)N3)ccn1 (stereo not shown) [Compound 18],***** (>2.5° C.=*****)
4,Cc1cc(OCC2(c3ccccc3)CC2)cn2nc(C(O)CN3CC4(CCN(c5ncc(C(=O)O)n6ccnc56)CC4)NC3=O)nc12 (stereo not shown) [Compound 54],**** (>1.5-2.5° C.=****)
5,Cc1cc(OC[C@H](C)c2ccccc2)cn2nc(C(O)CN3CC4(CCN(c5nccn6cnnc56)CC4)OC3=O)nc12 (stereo partly shown) [Compound 77],**** (>1.5-2.5° C.=****)
6,Cc1nccnc1N1CCC2(CC1)CN(CCc1nc3c(C)cc(OC[C@H](C)c4ccccc4)cn3n1)C(=O)N2 [Compound 94],**** (>1.5-2.5° C.=****)
7,Cc1cc(N2CCC(C)(c3ccccc3)C2)cn2nc(CCCN3CC4(CCN(c5nccn6ccnc56)CC4)NC3=O)nc12 (stereo not shown) [Compound 4],***** (>2.5° C.=*****)
8,Cc1ccc(N2CCC3(CC2)CN(CC(O)c2nc4c(C)cc(OCC5(c6ccccc6)CC5)cn4n2)C(=O)N3)cn1 (stereo not shown) [Compound 128],**** (>1.5-2.5° C.=****)
9,"Cc1cc(OC[C@H](C)c2ccccc2)cn2nc(CCN3CC4(CCN(c5nccn6cnnc56)CC4)OC3=O)nc12 [Compound 116, (R)-8-([1,2,4]triazolo[4,3-a]pyrazin-8-yl)-3-(2-(8-methyl-6-(2-phenylpropoxy)-[1,2,4]triazolo[1,5-a]pyridin-2-yl)ethyl)-1-oxa-3,8-diazaspiro[4.5]decan-2-one]",**** (>1.5-2.5° C.=****)
10,Cc1cc(OC[C@H](C)c2ccccc2)cn2nc(C(O)CN3CC4(CN(c5ccnc(S(C)(=N)=O)c5)C4)NC3=O)nc12 (stereo partly shown) [Compound 82],**** (>1.5-2.5° C.=****)
11,Cc1cc(OC[C@H](C)c2ccccc2)cn2nc(C(C)(O)CN3CC4(CCN(C(=O)Cc5ncnn5C)CC4)NC3=O)nc12 (stereo partly shown) [Compound 66],*** (>1-1.5° C.=***)
12,Cc1cc(OCC2(c3ccccc3)CC2)cn2nc(C(O)CN3CC4(CCN(c5nnn(C)n5)CC4)NC3=O)nc12 (stereo not shown) [Compound 62],**** (>1.5-2.5° C.=****)
13,CC[C@]1(c2ccccc2)CCN(c2cc(C)c3nc(CCN4CC5(CCN(c6nccn7cnnc67)CC5)NC4=O)nn3c2)C1 [Compound 8],***** (>2.5° C.=*****)
14,Cc1cc(OCC2(c3ccccc3)CC2)cn2nc(C(O)CN3CC4(CCN(c5ccc(F)nn5)CC4)NC3=O)nc12 (stereo not shown) [Compound 43],**** (>1.5-2.5° C.=****)
15,Cc1cc(OCC2(c3ccccc3)CC2)cn2nc(C(O)CN3CC4(CCN(C(=O)Cc5nnc[nH]5)CC4)NC3=O)nc12 (stereo not shown) [Compound 32],**** (>1.5-2.5° C.=****)
16,Cc1cc(OC[C@H](C)c2ccccc2)cn2nc(CCN3CC4(CCN(C(=O)c5nncn5C)CC4)NC3=O)nc12 [Compound 93],**** (>1.5-2.5° C.=****)
17,Cc1cc(OCC2(c3ccccc3)CC2)cn2nc(C(O)CN3CC4(CCN(c5nc(F)ccc5N)CC4)NC3=O)nc12 (stereo not shown) [Compound 53],**** (>1.5-2.5° C.=****)
18,COC(=O)c1cnc(N2CCC3(CC2)CN(CC(O)c2nc4c(C)cc(OCC5(c6ccccc6)CC5)cn4n2)C(=O)N3)c2nccn12 (stereo not shown) [Compound 136],***** (>2.5° C.=*****)
19,"Cc1cc(OCC(C)c2ccccc2)cn2nc(CCN3CC4(CCN(c5nccn6ccnc56)CC4)NC3=O)nc12 (stereo not shown) [Compound 9, 8-(Imidazo[1,2-a]pyrazin-8-yl)-3-(2-(8-methyl-6-(2-phenylpropoxy)-[1,2,4]triazolo[1,5-a]pyridin-2-yl)ethyl)-1,3,8-triazaspiro[4.5]decan-2-one]",***** (>2.5° C.=*****)
20,Cc1cc(OC[C@H](C)c2ccccc2)cn2nc(C(O)CN3CC4(CN(c5ccnc(C(=O)O)c5)C4)NC3=O)nc12 (stereo partly shown) [Compound 80],***** (>2.5° C.=*****)
21,Cc1cc(OC[C@H](C)c2ccccc2)cn2nc(C(O)CN3CC4(CCN(c5nccn6cnnc56)CC4)NC3=O)nc12 (stereo partly shown) [Compound 76],***** (>2.5° C.=*****)
22,Cc1cc(OCC2(c3ccccc3)CC2)cn2nc(C(O)CN3CC4(CCN(c5cc(F)ncn5)CC4)NC3=O)nc12 (stereo not shown) [Compound 59],**** (>1.5-2.5° C.=****)
23,C[C@@H](COc1cc(CO)c2nc(C(O)CN3CC4(CN(c5ccnc(O)c5)C4)OC3=O)nn2c1)c1ccccc1 (stereo partly shown) [Compound 145],***** (>2.5° C.=*****)

row,Structure (SMILES),DSF temperature shift: [Tm]compound−[Tm]vehicle
1,Cc1cc(OC[C@H](C)c2ccccc2)cn2nc(C(O)CN3CC4(CCN(c5ccnc(O)c5)CC4)NC3=O)nc12 (stereo partly shown) [Compound 74],**** (>1.5-2.5° C.=****)
2,Cc1cc(OC[C@H](C)c2ccccc2)cn2nc(C(O)CN3CC4(CCN(C(=O)Cc5ncnn5C)CC4)NC3=O)nc12 (stereo partly shown) [Compound 70],**** (>1.5-2.5° C.=****)
3,C[C@]1(c2ccccc2)CCN(c2cc(CO)c3nc(C(O)CN4CC5(CN(c6ccnc(O)c6)C5)NC4=O)nn3c2)C1 (stereo partly shown) [Compound 146],***** (>2.5° C.=*****)
4,Cc1cc(OC[C@H](C)c2ccccc2)cn2nc(C(O)CN3CC4(CN(c5nccc(C(=O)O)n5)C4)NC3=O)nc12 (stereo partly shown) [Compound 87],***** (>2.5° C.=*****)
5,Cc1cc(N2CC[C@@](C)(c3ccccc3)C2)cn2nc(CCN3CC4(CCN(c5nccn6ccnc56)CC4)NC3=O)nc12 [Compound 3],***** (>2.5° C.=*****)
6,Cc1nc(N2CCC3(CC2)CN(CCc2nc4c(C)cc(OC[C@H](C)c5ccccc5)cn4n2)C(=O)N3)ns1 [Compound 124],**** (>1.5-2.5° C.=****)
7,Cc1cc(OC[C@H](C)c2ccccc2)cn2nc(CCN3CC4(CCN(c5cc(F)nc(F)n5)CC4)NC3=O)nc12 [Compound 110],**** (>1.5-2.5° C.=****)
8,Cc1cc(OC[C@@H](C)c2ccccc2)cn2nc(CCN3CC4(CCN(c5nccn6ccnc56)CC4)NC3=O)nc12 [Compound 11],**** (>1.5-2.5° C.=****)
9,CNC(=O)c1cc(N2CCC3(CC2)CN(CC(C)(O)c2nc4c(C)cc(OC[C@H](C)c5ccccc5)cn4n2)C(=O)N3)ccn1 (stereo partly shown) [Compound 132],**** (>1.5-2.5° C.=****)
10,Cc1cc(OCC2(c3ccccc3)CC2)cn2nc(C(O)CN3CC4(CCN(c5cnc(C#N)c(F)c5)CC4)NC3=O)nc12 (stereo not shown) [Compound 38],**** (>1.5-2.5° C.=****)
11,Cc1cc(OC[C@H](C)c2ccccc2)cn2nc(CCN3CC4(CCN(c5ncn(C)n5)CC4)NC3=O)nc12 [Compound 120],**** (>1.5-2.5° C.=****)
12,Cc1cc(OC[C@H](C)c2ccccc2)cn2nc(CCN3CC4(CCN(c5nccn6ccnc56)CC4)NC3=O)nc12 [Compound 10],***** (>2.5° C.=*****)
13,Cc1cc(OCC2(c3ccccc3)CC2)cn2nc(C(O)CN3CC4(CCN(c5ccnc(Cl)c5)CC4)NC3=O)nc12 (stereo not shown) [Compound 37],**** (>1.5-2.5° C.=****)
14,Cc1cc(OC[C@H](C)c2ccccc2)cn2nc(C(O)CN3CC4(CCN(c5cncnc5)CC4)NC3=O)nc12 (stereo partly shown) [Compound 75],**** (>1.5-2.5° C.=****)
15,CNC(=O)c1cc(N2CCC3(CC2)CN(Cc2nc4c(C)cc(OC[C@H](C)c5ccccc5)cn4n2)C(=O)N3)ccn1 [Compound 134],**** (>1.5-2.5° C.=****)
16,Cc1cc(N2CCC3(CC2)CN(CCc2nc4c(C)cc(OC[C@H](C)c5ccccc5)cn4n2)C(=O)N3)ccn1 [Compound 98],***** (>2.5° C.=*****)
17,Cc1cc(OC[C@H](C)c2ccccc2)cn2nc(C(=O)CN3CC4(CCN(c5nccn6cnnc56)CC4)CC3=O)nc12 [Compound 64],**** (>1.5-2.5° C.=****)
18,Cc1cc(N2CC[C@@](C)(c3ccccc3)C2)cn2nc(C(O)CN3CC4(CN(c5ccnc(O)c5)C4)NC3=O)nc12 (stereo partly shown) [Compound 23],***** (>2.5° C.=*****)
19,Cc1cc(OC[C@H](C)c2ccccc2)cn2nc(CCN3CC4(CCN(c5cc(C(F)(F)F)ccn5)CC4)NC3=O)nc12 [Compound 95],*** (>1-1.5° C.=***)
20,Cc1noc(N2CCC3(CC2)CN(CCc2nc4c(C)cc(OC[C@H](C)c5ccccc5)cn4n2)C(=O)N3)n1 [Compound 108],***** (>2.5° C.=*****)
21,COC(CN1CC2(CCN(c3ccnc(O)c3)CC2)NC1=O)c1nc2c(C)cc(OC[C@H](C)c3ccccc3)cn2n1 (stereo partly shown) [Compound 138],**** (>1.5-2.5° C.=****)
22,Cc1cc(OCC2(c3ccccc3)CC2)cn2nc(C(O)CN3CC4(CCN(c5ccc(F)nc5)CC4)NC3=O)nc12 (stereo not shown) [Compound 42],**** (>1.5-2.5° C.=****)
23,CNC(=O)c1cc(N2CCC3(CC2)CN(CC(O)c2nc4c(C)cc(OCC5(c6ccccc6)CC5)cn4n2)C(=O)N3)ccn1 (stereo not shown) [Compound 133],***** (>2.5° C.=*****)
